Tested on: noci-TRAP^hM4 mice
Experiment: Reflexive and affective-motivational pain behaviors after chemogenetic inhibition of the BLA nociceptive ensemble
Type: in vivo
Conditions: CNO 10 mg/kg; mechanical and thermal noxious stimuli
Method: We habituated mice to a first testing room (room-A) for three consecutive days. Execution of all TRAP procedures occurred in Room-A. During these habituation days, no nociceptive stimuli were delivered, and no baseline thresholds were measured (i.e., mice were naïve to pain experience before the TRAP procedure). In room-A, we placed individual mice within red plastic cylinders (10.16-cm D), with a red lid, on a raised perforated, flat metal platform (60.96-cm H). […] This stimulus frequency was selected to closely match the protocols used in the microendoscope imaging experiments in which significant Ca^2+ transients were reliably detected in BLA Camk2a+ neurons. […]
To evaluate mechanical reflexive sensitivity, we used a logarithmically increasing set of 8 von Frey filaments (Stoelting), ranging in gram force from 0.07- to 6.0-g (93). […] Using the Up-Down statistical method, the 50% withdrawal mechanical threshold scores were calculated for each mouse and then averaged across the experimental groups. The response frequency was calculated as the number of positive responses out of 10 stimulations, delivered at 30-s intervals. […]

SMILES: C[N+]1([O-])CCN(C2=Nc3cc(Cl)ccc3Nc3ccccc32)CC1 [CNO, clozapine-N-oxide]
- attending and escape behaviors: significantly reduced

From US20210220489A1, “AMYGDALAR NEURAL ENSEMBLE THAT ENCODES THE UNPL[…] PAIN” (The Board of Trustees of the Leland Stanford Junior …, priority 2020, published 2021)
